In general, inhibition refers to the relative decrease from the control value, in per cent. What is called IC50 is the midpoint of a concentration-inhibition curve.

Results on ten compounds are retold here after article PMC8153708, “Inhibition of soluble epoxide hydrolase by phytochemical constituents of the root bark of Ulmus davidiana var. japonica” (Journal of Enzyme Inhibition and Medicinal Chemistry, 2021).

In the experiment the target is T1, soluble epoxide hydrolase (sEH) (Homo sapiens, UniProt P34913).
T1 construct: purchased Cayman 10011669
T1 sequence (P34913 1-555): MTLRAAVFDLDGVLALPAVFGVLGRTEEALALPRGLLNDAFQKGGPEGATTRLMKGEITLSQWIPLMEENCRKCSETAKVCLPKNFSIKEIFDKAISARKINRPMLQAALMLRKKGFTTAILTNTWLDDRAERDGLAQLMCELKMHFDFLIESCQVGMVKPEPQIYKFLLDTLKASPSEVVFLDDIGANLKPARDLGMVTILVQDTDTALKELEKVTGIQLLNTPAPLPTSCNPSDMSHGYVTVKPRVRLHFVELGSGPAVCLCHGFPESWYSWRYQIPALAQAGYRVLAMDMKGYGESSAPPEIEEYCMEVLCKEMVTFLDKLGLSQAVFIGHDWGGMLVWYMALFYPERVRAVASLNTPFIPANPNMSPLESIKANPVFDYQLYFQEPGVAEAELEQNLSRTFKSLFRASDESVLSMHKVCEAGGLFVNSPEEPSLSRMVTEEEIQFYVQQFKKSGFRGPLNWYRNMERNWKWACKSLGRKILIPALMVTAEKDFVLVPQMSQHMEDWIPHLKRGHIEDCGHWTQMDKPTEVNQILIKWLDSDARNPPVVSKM
In words: sEH inhibition assay (PHOME fluorescent substrate). It is filed as biochemical. Particulars: 37 °C, mean ± SEM; for inhibition at 100 µM: 100 μM compound, after 40 min, read-out: Inhibition of compounds on sEH, 100 μM (%); for IC50: tested three times, read-out: Inhibition of compounds on sEH, IC50. As to the method: The sEH assay was performed as described previously, with minor modifications. For determining inhibitory activity, 130 µL of ∼83 µg/mL sEH in 25 mM bis-Tris–HCl buffer (pH 7.0) containing 0.1% BSA was added to either 20 µL of inhibitor dissolved in MeOH, or MeOH. Next, 50 µL of the 10 µM substrate (PHOME) was added to each mixture and incubated at 37 °C to allow for sEH hydrolysis.
Inhibitory activity was calculated using the following equations: (1) Inhibitoryactivityrate(%)=[(ΔC–ΔI)/ΔC]×100 where ΔC and ΔI are the intensity of the control and inhibitor, respectively, after 40 min. (2) y=y0+(a×x/b+x) where y0 is the minimum value of the y-axis, a is the difference between the maximum and minimum values, and b is the x value at 50% of the a value.
The results were analysed using Sigma Plot (Systat Software Inc., San Jose, CS).

On to `COc1cc(C2Oc3c(OC)cc(CCCO)cc3C2CO[C@@H]2OC[C@@H](O)[C@H](O)[C@H]2O)ccc1O` (stereo partly drawn) [Compound 8, 2,3-dihydro-2–(4-hydroxy-3-methoxyphenyl)-5–(3-hydroxypropyl)-7-methoxy-3-benzofuranylmethyl β-D-xylopyranoside], for which the inhibition at 100 µM was 64.8 ± 1.4% and the IC50 came out at 36.9 ± 2.6 µM.

Turning to `OCc1ccc(O)cn1` [Compound 4, 6-hydroxymethyl-3-pyridinol], the inhibition at 100 µM worked out at 65.9 ± 0.8% and the half-maximal inhibitory concentration (IC50) was determined as 26.3 ± 4.5 µM.

Take `OCC1(O)COC(Oc2cc(O)c3c(c2)OC(c2ccc(O)c(O)c2)C(O)C3)C1O` (stereo not drawn) [Compound 6, catechin-7-O-β-apiofuranoside]: the inhibition at 100 µM was determined as 69.8 ± 2.2% and the IC50 was 16 ± 3.2 µM.

Turning to `COc1cc(C2Oc3c(OC)cc(CCCO)cc3C2CO)ccc1OC1OC(C)C(O)C(O)C1O` (centres unmarked) [Compound 7, icariside E4], the inhibition at 100 µM came to 55.6 ± 0.7% and the IC50 came out at 23 ± 0.7 µM.

On to `O=C1c2c(O)cc(O)cc2OC(c2cc(O)cc(O)c2)C1O` (centres unmarked) [Compound 10, 3,5,7-trihydroxy-2–(3,5-dihydroxyphenyl) chroman-4-one], for which the inhibition at 100 µM stood at 70.7 ± 0.4% and the IC50 is 16.1 ± 3.2 µM.

Consider `O=C1CC(c2ccc(O)cc2)Oc2cc(O)c(C3OC(CO)C(O)C(O)C3O)c(O)c21` [Compound 3, naringenin-6-C-β-D-glucopyranoside], for which the inhibition at 100 µM was under 38%.

Take `Oc1cc(O)c2c(c1)O[C@H](c1ccc(O)c(O)c1)[C@@H](O)C2` [Compound 5, (+)-catechin]: the inhibition at 100 µM was under 38%.

As to `O=C(O)c1ccc(O)c(O)c1` [Compound 9, protocatechuic acid], the inhibition at 100 µM was under 38%.

With `O=C1OC2Cc3c(O)cc(OC4OCC(O)(CO)C4O)cc3OC2c2ccc(O)c(O)c21` [Compound 1, (6aS,12aR)-3,4,8-trihydroxy-6a-7-dihydroisochromeno[4,3-b]chromen-5(12aH)-one-10-O-β-apiofuranoside], the inhibition at 100 µM stood at 59.4 ± 2.5% and the IC50 stood at 14.5 ± 0.5 µM.

On to `O=C1CC(c2ccccc2)Oc2cc(O)c(C3OC(CO)C(O)C(O)C3O)c(O)c21` [Compound 2, pinocembrin 6-C-β-D-glucoside], for which the inhibition at 100 µM worked out at 91.8 ± 4.5% and the IC50 stood at 11.4 ± 2.3 µM.
